The values that follow come from patent US11666597B2, “Water-activated mucoadhesive compositions to reduce intestinal absorption of nutrients” (The Brigham and Women's Hospital, Inc., priority 2015, dated 2023).

In data set [1] the test system is normal Sprague-Dawley (SD) rats. Briefly: OGTT with sucralfate. It counts as in vivo, rat. From the text: In contrast, sucralfate selectively binds to ulcerated mucosa where the bicarbonate secretion is malfunctioned (i.e. acidic), while on bicarbonate-neutralized healthy mucosa sucralfate forms loosely bound discrete solid aggregates attached on the surface rather than forming a continuous layer. […] The neutralized pH on mucus surfaces also compromised the barrier function of sucralfate due to the change of rheological properties.

A short description of data set [2]: Degree of polymerization of PAC by titration. The conditions noted are these: native sucralfate. Format: physicochemical. The method, then: Experiments were performed to determine the degree of polymerization in AF-LuCI by using the titration-based methods as described in Nail, S. L., White, J. L. & Hem, S. L. Structure of Aluminum Hydroxide Gel I: Initial Precipitate. Journal of Pharmaceutical Sciences 65, 1188-1191 (1976); and Hem, J. D. & Roberson, C. E. Form and stability of aluminum hydroxide complexes in dilute solution. Geol Surv Water-Supply Pap(US)(United States) (1967). The degree of polymerization of PACs in AF-LuCI and sucralfate molecule was determined using titration method based on the reversible protonation of hydroxo linkages in the PAC backbone. Approximately 10 mg of AF-LuCI were treated with 0.1N, 0.2N, 0.3N, 0.4N and 0.5N HCl solutions in different tubes. The samples were vortexed for 5 seconds followed by 1-hour incubation. The supernatant of each sample was then collected and the pH was measured using a pH meter. The same procedures were performed with sucralfate. The pH of the HCl solutions was measured as the control group and the difference between the control and the treated groups was calculated. The difference in pH corresponds to the proton consumption and the amount of hydroxo linkages that were then used to calculate the number of aluminum per molecule.

For data set [3] the following is noted: native sucralfate, USP specification; cited from earlier work.
Data set [4] is described as follows: Aluminum release in simulated gastrointestinal fluids. It counts as physicochemical.
Data set [5] in a line: Glucose barrier test on mucin-coated membrane in Franz cell. The arrangement: species or system porcine. The method, then: To examine the barrier properties of pastes formed from the new hydratable compositions in vitro, a mucin-coated membrane was prepared to mimic the mucus surface of the intestine. Specifically, a cellulose nitrate membrane (pore size: 0.2 μm, Whatman, Germany) was incubated in a 3% w/v porcine stomach mucin (SigmaAldrich, USA) solution in PBS (pH 7.4) and gently shaken for 2 hours at room temperature. The membrane was washed with distilled deionized water (DDW, pH 5.5) to remove the excess mucin solution. The mucin-coated membranes were used within 1 hour following preparation.
To measure the thickness of the mucin layer, the mucin-coated membrane was lyophilized and imaged using scanning electron microscope (SEM) and the thickness of randomly selected positions was examined (average mucin layer thickness: ˜100 μm). To test the nutrient barrier properties, 10 mg of sucralfate or AF-LuCI was added evenly to a mucin-coated membrane and vertically tilted for 1 minute. […]
The permeation tests were performed in triplicate for each material. The glucose concentration was measured using high performance liquid chromatography (HPLC, Agilent, USA) with an analytical C18 column (Zorbax Eclipse XDB-C18, Agilent). […]

A short description of data set [6]: Thickness of paste layer on mucus-coated cellulose nitrate membrane. The method, then:
Five hundred milligrams of AF-LuCI (excess) was added onto mucus-coated cellulose nitrate membrane (disk shape with 2 cm diameter) and DDW (pH 5.5), SGF (pH 1.0), or SIF (pH 6.5) was added immediately. After AF-LuCI becomes a paste and flow to form a layer (3-5 minutes), supernatant was removed and the paste-coated membrane was quickly frozen in −80° C. freezer to measure the thickness. The thickness of the mucus-coated cellulose nitrate membrane without AF-LuCI was separately measured as a baseline.

The nature of data set [7]: Dissolution in NaCl solutions. It counts as physicochemical. The conditions noted are these: saturated NaCl solutions (~0.35 g/ml in water). From the text: […] This is a characteristic behavior of liquid complex coacervate system (See Wang, Q. & Schlenoff, J. B. The Polyelectrolyte Complex/Coacervate Continuum. Macromolecules 47, 3108-3116 (2014); de Kruif, C. G., Weinbreck, F. & de Vries, R. Complex coacervation of proteins and anionic polysaccharides. Current Opinion in Colloid & Interface Science 9, 340-349 (2004); Veis, A. & Aranyi, C. PHASE SEPARATION IN POLYELECTROLYTE SYSTEMS. I. COMPLEX COACERVATES OF GELATIN. J. Phys. Chem. 64, 1203-1210 (1960)).

For data set [8], the system named is Sprague-Dawley (SD) rats. Briefly: microCT imaging of coating in the GI tract after gavage. It counts as in vivo. The conditions noted are these: gavage into the stomach, AF-LuCI 450 mg/kg rat, imaged after 1 hr. The method, then:
Sprague-Dawley (SD) rats were gavaged into the stomach with hydrated AF-LuCI pastes and imaged using micro-computed tomography (microCT). AF-LuCI pastes could be visualized on gastro-intestinal tissues without additional contrast agents owing to the presence of aluminum. For these experiments, rats were fasted overnight and gavaged directly into the stomach with 450 mg/kg rat of AF-LuCI paste hydrated in 0.9 w/v % normal saline solution. After 1 hr and 5 hr, the rats were anesthetized using isoflurane and imaged using microCT. […] FIG. 18A is a coronal plane view of SD rats gavaged with AF-LuCI 1 hr before the imaging. AF-LuCI formed a layer in stomach, duodenum and proximal intestine. FIGS. 18B and 18C are 3-dimensional views of SD rats gavaged with AF-LuCI (FIG. 18B) 1 hr and (FIG. 18C) 5 hr before the microCT imaging. AF-LuCI is attached on stomach, duodenum and proximal intestine at least for 5 hrs after gavage while sucralfate only formed sparsely scattered aggregates on the healthy mucosa

sucralfate: the “area under curve (AUC) in OGTT versus saline treated group” value in data set [1] was “no significant difference”. Moreover, the “number of aluminum ions per molecule (degree of polymerization of PAC)” value in data set [2] is on record as 56.1±3.0 aluminum per molecule. Also, the “USP regulation on the aluminum content” value in data set [3] is recorded as 15.5-18.5 w/w % of the total weight. For the same substance, in data set [4] (exposed to an acidic fluid, e.g. gastric fluid, for AF-LuCI relative to the aluminum content of commercial sucralfate), the “release of original aluminum content” value was “about 15.0 w/w %”. Also, the release of aluminum in data set [4] (simulated gastric fluid (SGF, pH 1.0)) is listed as 15 w/w % of total aluminum content. Further, the glucose penetration blocked in data set [5] (SGF, 10 mg on membrane, 120 g/L glucose, 5 minutes) is recorded as around 60%. This substance also displayed a glucose blocked in data set [5] (applied on mucus-coated membrane in pH 1.0, then solution of pH 4.0 added) of 16.5%. In data set [6] (SGF (pH 1.0)), the thickness of layer is listed as around 250 μm. Also, in data set [6] (distilled water or SIF), the layer formation entry is recorded as “did not form any layer”. Also, in data set [7], the fraction dissolved result is given as “Less than 5 w/w %”. The “layer formation in the GI tract (microCT)” value in data set [8] is “did not form a layer”.
